One series is described as follows: in vivo. To be noted: rat, in vivo, po, 20 mg/kg.
In another series the test system is AGS. Put plainly: 3D cell proliferation inhibition assay (CellTiter-Glo 3D). The format is cell-based. To be noted: Homo sapiens, 120 h; AGS cells, KRAS G12D, 3D culture, 5 days with compound. How it is done: (§1) This experiment uses the cells listed in the table below to evaluate the inhibitory effects of the compounds on the proliferation of KRAS mutant or KRAS amplified cells.
(§2) On the first day of the experiment, cells that were growing well and had reached 70%-80% confluence were digested, resuspended in culture medium, and the cell density was adjusted to the desired level. In a U-shaped low-attachment 96-well plate (Corning, 7007), 90 µL of cell suspension was added per well, with the cell density as shown in the table above. The cell plate was centrifuged at 2500 rpm for 5 minutes and then placed in an incubator for 24 hours of culture. On the second day, the 20 mM test compound dissolved in DMSO was diluted with DMSO to the first concentration of 2 or 0.2 mM, and then serially diluted in a 5-fold gradient to obtain 9 concentration points, with the control well containing DMSO. The serially diluted compound was then further diluted 20-fold with culture medium. 10 µL of the test compound diluted in culture medium was added to each well of the cell plate. The final concentrations of the compound were 9 points in a 5-fold serial dilution starting from 10 or 1 µM. Cell wells containing 0.5% DMSO were set as vehicle control wells, and wells containing only culture medium and 0.5% DMSO were set as blank control wells. The cell plate was centrifuged at 2000 rpm for 3 minutes and then placed in an incubator for 5 days of culture. On the seventh day, the 96-well cell culture plate was taken out, and 50 µL of the luminescent cell viability detection reagent, CellTiter-Glo® 3D Cell Viability Assay (Promega, G9683), was added to each well. After shaking at room temperature for 25 minutes, the mixture was pipetted up and down to mix, and 100 µL was transferred from each well to a white, opaque-bottom OptiPlate™-96 well plate (PerkinElmer, 6005290). The luminescence signal value was read using a multimode microplate reader (PerkinElmer, EnVision2105).
(§3) The inhibition rate was calculated using the following formula: Inhibition rate = (Luminescence value vehicle control well - Luminescence value test compound)/(Luminescence value vehicle control well - Luminescence value blank control well) × 100%. The IC50 values of the compound inhibitory activity were calculated using Graphpad Prism software. Table 1. Data of inhibitory activity on 3D cell proliferation (unit: nM)
For orientation: Cellular ATP, detected with luciferase, serves as a proxy for viable cell number.

A further series has as its system GP2d. The description is as above. The format is cell-based. As to conditions: GP2d cells, KRAS G12D, 3D culture, 5 days with compound. How it is done:
as §1, §2, §3

The test system of another series is AsPC-1. Described as above. In kind it is cell-based. To be noted: Homo sapiens, ASPC1, 120 h; AsPC-1 cells, KRAS G12D, 3D culture, 5 days with compound. How it is done: as §1, §2, §3
A further series has as its system MKN1. Described as above. The format is cell-based. As to conditions: Homo sapiens, MKN-1, 120 h; MKN1 cells, KRAS Amp, 3D culture, 5 days with compound. The protocol:
as §1, §2, §3

A word on the AUC(0-t): it is the area under the concentration-time curve up to a stated or last time point. Low values mean low exposure, high ones high exposure. In general, CL/F refers to clearance divided by bioavailability, as obtained after extravascular dosing. One may read the Cmax as the maximum level reached in the sampled fluid or tissue. Usually Vd/F stands for the volume of distribution divided by bioavailability. Usually half-life stands for the time in which the quantity being followed falls by half. A lower half-life goes with fast loss. One may read the IC50 as the concentration needed to halve the response being measured.

A value given as a limit tells only on which side of the number the result lay.

Protocol for in vivo: Using SD rats as the test animals, the plasma concentrations of the example compounds at different time points were determined by LC-MS/MS following oral gavage (i.g.) administration. The pharmacokinetic behaviours of the compounds of the present disclosure in rats were investigated, and their pharmacokinetic profiles were evaluated.
Blood samples (0.2 mL) were collected from the orbit before administration and at 0.25, 0.5, 1.0, 2.0, 4.0, 6.0, 8.0, 11.0, and 24.0 hours after administration. The samples were placed in EDTA-K2 anticoagulant tubes, centrifuged at 10,000 rpm for 2 minute (4°C), and the plasma was separated within 1 hour and stored at -20°C or -80°C until analysis. The entire process from blood collection to centrifugation was performed in ice bath conditions.
The mixture was vortexed and then centrifuged at 4000 rpm for 15 minutes; the supernatant was taken for LC-MS/MS analysis. […] The mixture was vortexed and then centrifuged at 3700 rpm for 10 minutes; the supernatant was taken for LC-MS/MS analysis.
The mixture was vortexed and then centrifuged at 4000 rpm for 15 minutes; the supernatant was taken for LC-MS/MS analysis. […] The mixture was vortexed and then centrifuged at 4000 rpm for 15 minutes; the supernatant was taken for LC-MS/MS analysis.

In the case of `N#Cc1c(N)sc2c(F)ccc(-c3c4c(c5cnc(OC[C@@]67CCCN6C[C@H](F)C7)nc5c3Cl)COC4)c12` (single isomer, unassigned) [60A (reference), reference compound], in “in vivo”, the AUC(0-t) worked out at 1820 ng·h/mL, the apparent clearance CL/F came to 178 mL/min/kg, the peak level (Cmax) was 143 ng/mL and the Vd/F amounted to 54.5 L/kg. In “in vivo”, this compound gave a half-life of 3.53 h.

Take `N#Cc1c(N)sc2c(F)ccc(-c3c4c(c5c(N6C7CCC6CNC7)nc(OCC6(CN7CCC(=CF)CC7)CC6)nc5c3F)COC4)c12` (single isomer, unassigned) [Example 9A]: the 50% inhibitory concentration (IC50) with AGS came to 4.22 nM; in the series on GP2d it was 0.16 nM.

In the case of `N#Cc1c(N)sc2c(F)ccc(-c3c4c(c5c(N6C7CCC6CNC7)nc(OCC6(CN7CCC(=CF)CC7)CC6)nc5c3F)COC4)c12` (single isomer, unassigned) [Example 9B], the concentration for half-maximal inhibition (IC50) with GP2d amounted to 2.6 nM.

Consider `C[C@@H](O)CN1CC2CCC(C1)N2c1nc(OCC2(C#N)CC2)nc2c(F)c(-c3ncc(F)c4sc(N)c(C#N)c34)c3c(c12)COC3` [58 (reference), reference compound], for which the IC50 in the series with AGS was 2000 nM; in the series on GP2d (GP2d, 120 h), > 1000 nM; with AsPC-1, 3330 nM.

For the compound `C[C@@H](O)CN1CC2CCC(C1)N2c1nc(OCC2(CN3CCC(=CF)CC3)CC2)nc2c(F)c(-c3ncc(F)c4sc(N)c(C#N)c34)c3c(c12)COC3` [Example 1, 2-amino-7-fluoro-4-(5-fluoro-3-((1-((4-(fluoromethylene)piperidin-1-yl)methyl)cyclopropyl)methoxy)-1-(3-((R)-2-hydroxypropyl)-3,8-diazabicyclo[3.2.1]oct-8-yl)-7,9-dihydrofuro[3,4-f]quinazolin-6-yl)thieno[3,2-c]pyridine-3-carbonitrile], the IC50 in the series on AGS was determined as 1.03 nM; in the series with GP2d (GP2d, 120 h), 0.28 nM; in the series with AsPC-1, 4.17 nM.

As for `N#Cc1c(N)sc2c(F)cnc(-c3c4c(c5c(N6C7CCC6CNC7)nc(OCC6(CN7CCC(=CF)CC7)CC6)nc5c3F)COC4)c12` [Example 1i, 4-(1-(3,8-diazabicyclo[3.2.1]oct-8-yl)-5-fluoro-3-((1-((4-(fluoromethylene)piperidin-1-yl)methyl)cyclopropyl)methoxy)-7,9-dihydrofuro[3,4-f]quinazolin-6-yl)-2-amino-7-fluorothieno[3,2-c]pyridine-3-carbonitrile], the IC50 with AGS came out at 1.03 nM; in the series with GP2d (GP2d, 120 h), 0.34 nM; in the series on AsPC-1, 5.07 nM.

For `N#Cc1c(N)sc2c(F)ccc(-c3c4c(c5c(N6C7CCC6CNC7)nc(OCC6(CN7CCC(=CF)CC7)CC6)nc5c3F)COC4)c12` [Example 9, 4-(1-(3,8-diazabicyclo[3.2.1]oct-8-yl)-5-fluoro-3-((1-((4-(fluoromethylene)piperidin-1-yl)methyl)cyclopropyl)methoxy)-7,9-dihydrofuro[3,4-f]quinazolin-6-yl)-2-amino-7-fluorobenzo[b]thiophene-3-carbonitrile], the half-inhibitory concentration (IC50) with AGS was 1.09 nM; in the series on GP2d (GP2d, 120 h) it was 0.26 nM; with AsPC-1, 9.95 nM.

As to `N#Cc1c(N)sc2c(F)ccc(-c3c4c(c5c(N6C7CCC6CNC7)nc(OCC6(CN7CCC(=C(F)F)CC7)CC6)nc5c3F)COC4)c12` [Example 11, 4-(1-(3,8-diazabicyclo[3.2.1]oct-8-yl)-3-((1-((4-(difluoromethylene)piperidin-1-yl)methyl)cyclopropyl)methoxy)-5-fluoro-7,9-dihydrofuro[3,4-f]quinazolin-6-yl)-2-amino-7-fluorobenzo[b]thiophene-3-carbonitrile], the IC50 is 8.64 nM with AGS and 0.86 nM in the series on GP2d (GP2d, 120 h).

As for `N#Cc1c(N)sc2c(F)ccc(-c3c4c(c5c(N6C7CCC6CNC7)nc(OCC67CCCN6CC(=CF)C7)nc5c3F)COC4)c12` (stereo not drawn) [Example 13, 4-(1-(3,8-Diazabicyclo[3.2.1]oct-8-yl)-5-fluoro-3-((2-(fluoromethylene)tetrahydro-1H-pyrrolizin-7a(5H)-yl)methoxy)-7,9-dihydrofuro[3,4-f]quinazolin-6-yl)-2-amino-7-fluorobenzo[b]thiophene-3-carbonitrile], the IC50 in the series on AGS is 2.19 nM; in the series with GP2d (GP2d, 120 h), 0.39 nM.

As for `N#Cc1c(N)sc2c(F)ccc(-c3c4c(c5cnc(OCC6(CN7CCC(=CF)CC7)CC6)nc5c3F)COC4)c12` [Example 14, 2-Amino-7-fluoro-4-(5-fluoro-3-((1-((4-(fluoromethylene)piperidin-1-yl)methyl)cyclopropyl)methoxy)-7,9-dihydrofuro[3,4-f]quinazolin-6-yl)benzo[b]thiophene-3-carbonitrile], the 50% inhibitory concentration (IC50) worked out at 15.1 nM with AGS; 5.85 nM with GP2d (GP2d, 120 h); 8.1 nM in the series with MKN1.

In the case of `N#Cc1c(N)sc2c(F)ccc(-c3c4c(c5c(N6C7CCC6CNC7)nc(OCC67CCCN6CC(=C(F)F)C7)nc5c3F)COC4)c12` (stereo not drawn) [Example 17, 4-(1-(3,8-Diazabicyclo[3.2.1]oct-8-yl)-3-((2-(difluoromethylene)tetrahydro-1H-pyrrolizin-7a(5H)-yl)methoxy)-5-fluoro-7,9-dihydrofuro[3,4-f]quinazolin-6-yl)-2-amino-7-fluorobenzo[b]thiophene-3-carbonitrile], the half-maximal inhibitory concentration (IC50) stood at 2.86 nM with AGS and 0.57 nM in the series on GP2d (GP2d, 120 h).

Take `C=C1CN2CC(=C)CC2(COc2nc(N3C4CCC3CNC4)c3c4c(c(-c5ccc(F)c6sc(N)c(C#N)c56)c(F)c3n2)COC4)C1` [Example 18, 4-(1-(3,8-Diazabicyclo[3.2.1]oct-8-yl)-3-((2,6-dimethylenetetrahydro-1H-pyrrolizin-7a(5H)-yl)methoxy)-5-fluoro-7,9-dihydrofuro[3,4-f]quinazolin-6-yl)-2-amino-7-fluorobenzo[b]thiophene-3-carbonitrile]: the concentration for half-maximal inhibition (IC50) in the series with AGS was 4.89 nM; with GP2d (GP2d, 120 h), 0.53 nM.

Turning to `N#Cc1c(N)sc2c(F)cnc(-c3c4c(c5c(N6C7CCC6CNC7)nc(OCC6(CN7CCC(=C(F)F)CC7)CC6)nc5c3F)COC4)c12` [Example 20, 4-(1-(3,8-diazabicyclo[3.2.1]oct-8-yl)-3-((1-((4-(difluoromethylene)piperidin-1-yl)methyl)cyclopropyl)methoxy)-5-fluoro-7,9-dihydrofuro[3,4-f]quinazolin-6-yl)-2-amino-7-fluorothieno[3,2-c]pyridine-3-carbonitrile], the IC50 was 2.09 nM in the series with AGS; 0.27 nM in the series with GP2d (GP2d, 120 h); 7.56 nM with AsPC-1.

`N#Cc1c(N)sc2c(F)cnc(-c3c4c(c5c(N6C7CCC6CN(O)C7)nc(OCC6(CN7CCC(=C(F)F)CC7)CC6)nc5c3F)COC4)c12` [Example 21, 2-Amino-4-(3-((1-((4-(difluoromethylene)piperidin-1-yl)methyl)cyclopropyl)methoxy)-5-fluoro-1-(3-hydroxyl-3,8-diazabicyclo[3.2.1]oct-8-yl)-7,9-dihydrofuro[3,4-f]quinazolin-6-yl)-7-fluorothieno[3,2-c]pyridine-3-carbonitrile]: the half-maximal inhibitory concentration (IC50) in the series with GP2d (GP2d, 120 h) was determined as 2.12 nM.

With `N#Cc1c(N)sc2c(F)cnc(-c3c4c(c5c(N6C7CCC6CN(O)C7)nc(OCC6(CN7CCC(=CF)CC7)CC6)nc5c3F)COC4)c12` [Example 22, 2-Amino-7-fluoro-4-(5-fluoro-3-((1-((4-(fluoromethylene)piperidin-1-yl)methyl)cyclopropyl)methoxy)-1-(3-hydroxyl-3,8-diazabicyclo[3.2.1]oct-8-yl)-7,9-dihydrofuro[3,4-f]quinazolin-6-yl)thieno[3,2-c]pyridine-3-carbonitrile], the half-maximal inhibitory concentration (IC50) worked out at 1.57 nM with AGS; 0.26 nM with GP2d (GP2d, 120 h); 4.64 nM in the series with AsPC-1.

As to `C=C1CN2CC(=C)CC2(COc2ncc3c4c(c(-c5ccc(F)c6sc(N)c(C#N)c56)c(F)c3n2)COC4)C1` [Example 26, 2-Amino-4-(3-((2,6-dimethylenetetrahydro-1H-pyrrolizin-7a(5H)-yl)methoxy)-5-fluoro-7,9-dihydrofuro[3,4-f]quinazolin-6-yl)-7-fluorobenzo[b]thiophene-3-carbonitrile], the half-maximal inhibitory concentration (IC50) in the series on GP2d (GP2d, 120 h) stood at 9.79 nM; in the series on MKN1, 13.2 nM.

Consider `N#Cc1c(N)sc2ccc(F)c(-c3c4c(c5cnc(OCC6(CN7CCC(=CF)CC7)CC6)nc5c3F)COC4)c12` [Example 40, 2-Amino-5-fluoro-4-(5-fluoro-3-((1-((4-(fluoromethylene)piperidin-1-yl)methyl)cyclopropyl)methoxy)-7,9-dihydrofuro[3,4-f]quinazolin-6-yl)benzo[b]thiophene-3-carbonitrile], for which the IC50 in the series on GP2d (GP2d, 120 h) was determined as 8.4 nM; in the series on MKN1 it was 11.1 nM.

For the origin of these results see EP4803523A1, “FUSED HETEROARYL COMPOUND, PREPARATION METHOD THEREFOR, AND USE THEREOF IN MEDICINE” (Jiangsu Hengrui Pharmaceuticals Co., Ltd., priority 2023, dated 2025).
